In ChEMBL document CHEMBL3091451, “Function-regulating pharmacophores in a sulfonamide class of glucocorticoid receptor agonists” (Bioorg Med Chem Lett, 2013):

What was measured:
[1] = molecular target: T1, Glucocorticoid receptor (Homo sapiens, UniProt P04150); test: Displacement of TAMRA-labeled dexamethasone from glucocorticoid receptor (unknown origin) by fluorescence polarization competitive binding assay
T1 sequence (P04150 whole entry): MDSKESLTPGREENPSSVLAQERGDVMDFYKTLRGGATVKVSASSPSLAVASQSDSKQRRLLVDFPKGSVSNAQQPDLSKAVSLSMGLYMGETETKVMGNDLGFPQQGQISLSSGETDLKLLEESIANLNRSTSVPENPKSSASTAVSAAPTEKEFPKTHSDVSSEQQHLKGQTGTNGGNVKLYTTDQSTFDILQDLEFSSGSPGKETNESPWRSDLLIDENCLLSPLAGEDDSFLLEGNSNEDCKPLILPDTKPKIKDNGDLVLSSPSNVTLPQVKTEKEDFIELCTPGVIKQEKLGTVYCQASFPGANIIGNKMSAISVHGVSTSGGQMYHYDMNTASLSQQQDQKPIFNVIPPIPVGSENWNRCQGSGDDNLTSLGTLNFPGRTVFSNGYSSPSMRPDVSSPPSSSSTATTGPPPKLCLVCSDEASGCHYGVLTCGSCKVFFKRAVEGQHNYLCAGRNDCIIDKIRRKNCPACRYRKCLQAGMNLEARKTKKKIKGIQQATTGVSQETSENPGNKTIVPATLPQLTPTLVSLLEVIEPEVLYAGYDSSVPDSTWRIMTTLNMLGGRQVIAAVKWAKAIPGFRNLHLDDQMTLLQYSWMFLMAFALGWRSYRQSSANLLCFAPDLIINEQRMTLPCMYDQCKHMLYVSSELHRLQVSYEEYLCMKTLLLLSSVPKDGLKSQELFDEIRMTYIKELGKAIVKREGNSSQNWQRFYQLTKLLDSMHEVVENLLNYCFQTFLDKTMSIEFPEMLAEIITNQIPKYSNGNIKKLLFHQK

[2] = molecular target: T2, Mineralocorticoid receptor (Homo sapiens, UniProt P08235); test: Binding affinity to mineralocorticoid receptor (unknown origin) by fluorescence polarization competitive binding assay
T2 sequence (P08235 whole entry): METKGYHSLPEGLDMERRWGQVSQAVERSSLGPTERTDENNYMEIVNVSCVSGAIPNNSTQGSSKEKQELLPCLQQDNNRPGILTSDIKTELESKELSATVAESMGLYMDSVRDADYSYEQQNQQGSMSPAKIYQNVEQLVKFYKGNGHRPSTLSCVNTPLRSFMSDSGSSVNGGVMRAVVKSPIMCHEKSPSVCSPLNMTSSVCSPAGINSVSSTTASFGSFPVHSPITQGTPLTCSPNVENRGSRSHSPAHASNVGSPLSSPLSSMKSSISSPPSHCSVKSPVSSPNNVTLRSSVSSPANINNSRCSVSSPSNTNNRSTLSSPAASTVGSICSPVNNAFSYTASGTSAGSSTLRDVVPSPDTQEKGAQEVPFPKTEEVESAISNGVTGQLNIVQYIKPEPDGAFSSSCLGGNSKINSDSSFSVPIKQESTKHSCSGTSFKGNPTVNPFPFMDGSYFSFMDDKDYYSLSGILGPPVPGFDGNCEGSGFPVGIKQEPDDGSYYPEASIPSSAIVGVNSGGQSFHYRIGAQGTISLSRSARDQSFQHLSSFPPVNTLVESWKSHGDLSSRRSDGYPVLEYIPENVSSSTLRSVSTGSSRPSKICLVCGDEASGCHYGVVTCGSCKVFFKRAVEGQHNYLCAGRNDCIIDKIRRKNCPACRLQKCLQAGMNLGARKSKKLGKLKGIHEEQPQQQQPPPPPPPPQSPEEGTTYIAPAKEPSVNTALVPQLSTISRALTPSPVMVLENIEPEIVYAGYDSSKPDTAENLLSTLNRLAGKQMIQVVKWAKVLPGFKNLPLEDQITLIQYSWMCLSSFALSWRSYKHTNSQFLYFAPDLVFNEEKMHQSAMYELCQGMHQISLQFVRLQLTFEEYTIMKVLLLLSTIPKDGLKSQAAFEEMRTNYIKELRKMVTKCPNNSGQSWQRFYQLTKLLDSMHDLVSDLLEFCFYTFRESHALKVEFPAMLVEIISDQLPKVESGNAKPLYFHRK

[3] = molecular target: T3, Progesterone receptor (Homo sapiens, UniProt P06401); test: Displacement of TAMRA-labeled mifepristone from progesterone receptor (unknown origin) by fluorescence polarization competitive binding assay
T3 sequence (P06401 whole entry): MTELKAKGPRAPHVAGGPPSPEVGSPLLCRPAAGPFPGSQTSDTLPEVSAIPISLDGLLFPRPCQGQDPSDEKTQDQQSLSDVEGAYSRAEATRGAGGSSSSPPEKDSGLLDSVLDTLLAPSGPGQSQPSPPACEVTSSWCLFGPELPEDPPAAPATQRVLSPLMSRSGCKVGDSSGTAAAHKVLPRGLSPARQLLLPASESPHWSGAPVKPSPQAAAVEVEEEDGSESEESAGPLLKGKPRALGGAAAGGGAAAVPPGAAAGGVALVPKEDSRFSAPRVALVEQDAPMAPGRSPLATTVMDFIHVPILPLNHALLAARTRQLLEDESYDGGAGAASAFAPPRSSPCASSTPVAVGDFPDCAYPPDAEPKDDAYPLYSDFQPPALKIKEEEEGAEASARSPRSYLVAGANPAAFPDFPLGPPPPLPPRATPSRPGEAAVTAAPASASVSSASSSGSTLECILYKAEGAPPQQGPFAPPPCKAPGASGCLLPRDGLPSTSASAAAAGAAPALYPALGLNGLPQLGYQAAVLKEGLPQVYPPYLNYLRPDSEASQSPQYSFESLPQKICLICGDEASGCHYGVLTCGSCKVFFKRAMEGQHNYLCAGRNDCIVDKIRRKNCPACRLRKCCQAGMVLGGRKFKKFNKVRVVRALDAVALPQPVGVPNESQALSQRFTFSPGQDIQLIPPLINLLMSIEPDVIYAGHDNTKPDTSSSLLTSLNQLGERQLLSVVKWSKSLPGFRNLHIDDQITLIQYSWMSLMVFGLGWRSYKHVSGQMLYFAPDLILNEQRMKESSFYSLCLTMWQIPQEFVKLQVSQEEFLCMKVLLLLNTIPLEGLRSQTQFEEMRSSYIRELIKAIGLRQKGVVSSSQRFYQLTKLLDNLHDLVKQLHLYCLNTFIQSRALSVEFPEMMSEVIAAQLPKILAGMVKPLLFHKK

[4] = molecular target: T1, Glucocorticoid receptor; test: Agonist activity at glucocorticoid receptor in HFF assessed as inhibition of IL-1-induced IL-6 production after 24 hrs
[5] = species: Homo sapiens; test: Selectivity ratio of IC50 for mineralocorticoid receptor (unknown origin) to IC50 for glucocorticoid receptor (unknown origin)
[6] = Half life in human liver microsomes; format: ADME
[7] = species: Mus musculus; test: Antiinflammatory activity in mouse assessed as inhibition of LPS-stimulated TNFalpha production; format: functional
[8] = molecular target: Cytochrome P450 3A4 (Homo sapiens, UniProt P08684); test: Inhibition of CYP3A4 (unknown origin) using 7-benzyloxy-4-trifluoromethylcoumarin as substrate; format: ADME
Chain of Cytochrome P450 3A4 (P08684 whole entry): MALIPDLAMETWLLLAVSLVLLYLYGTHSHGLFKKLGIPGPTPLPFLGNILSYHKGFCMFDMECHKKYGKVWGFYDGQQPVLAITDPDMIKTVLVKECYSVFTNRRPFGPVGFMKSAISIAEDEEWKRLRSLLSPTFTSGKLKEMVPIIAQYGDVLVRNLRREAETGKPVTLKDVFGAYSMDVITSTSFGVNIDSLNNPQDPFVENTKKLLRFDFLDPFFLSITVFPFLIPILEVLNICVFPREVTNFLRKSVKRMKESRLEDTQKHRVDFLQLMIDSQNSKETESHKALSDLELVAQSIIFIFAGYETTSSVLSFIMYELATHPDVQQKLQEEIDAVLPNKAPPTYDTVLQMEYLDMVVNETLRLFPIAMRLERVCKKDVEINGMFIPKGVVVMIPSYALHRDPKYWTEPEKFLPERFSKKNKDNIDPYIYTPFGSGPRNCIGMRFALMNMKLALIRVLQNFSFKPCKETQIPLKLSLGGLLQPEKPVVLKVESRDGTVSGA

[9] = species: Mus musculus; test: Antiarthritic activity in collagen antibody-induced arthritis mouse model; format: functional

Cc1cc(C)c(S(=O)(=O)NC(Cc2c[nH]c3c(C)cccc23)C(F)(F)F)c(C)c1 (stereo not drawn)
IC50 [1]: 20 nM
IC50 [2]: 90 nM
IC50 [3]: 5900 nM
IC50 [4]: > 10000 nM
Ratio IC50 [5]: 1

Cc1cc(C)c(S(=O)(=O)NC(CNc2ccccc2)C(F)(F)F)c(C)c1 (stereo not drawn)
IC50 [1]: 95 nM
IC50 [2]: 260 nM
IC50 [3]: 3200 nM
IC50 [4]: > 10000 nM

Cc1cc(C)c(S(=O)(=O)NC(Cc2c[nH]c3c(C#N)cc(C)cc23)C(F)(F)F)c(C)c1 (stereo not drawn)
IC50 [1]: 5 nM
IC50 [2]: 110 nM
IC50 [3]: 750 nM
IC50 [4]: 15 nM
Ratio IC50 [5]: 22

Cc1cc(C)c(S(=O)(=O)NC(Cc2c[nH]c3ccc(C)cc23)C(F)(F)F)c(C)c1 (stereo not drawn)
IC50 [1]: 10 nM
IC50 [2]: 90 nM
IC50 [3]: 6000 nM
IC50 [4]: 210 nM
Ratio IC50 [5]: 1

Cc1cc(C)c(S(=O)(=O)NC(Cn2ccc3ccccc32)C(F)(F)F)c(C)c1 (stereo not drawn)
IC50 [1]: 25 nM
IC50 [2]: 120 nM
IC50 [3]: 2400 nM
IC50 [4]: > 10000 nM

Cc1cc(C)c(S(=O)(=O)NC(CSc2ccccc2)C(F)(F)F)c(C)c1 (stereo not drawn)
IC50 [1]: 20 nM
IC50 [2]: 280 nM
IC50 [3]: 2000 nM
IC50 [4]: > 10000 nM

Cc1cc(C)c(S(=O)(=O)NC(Cc2c[nH]c3c(C#N)cccc23)C(F)(F)F)c(C)c1 (stereo not drawn)
IC50 [1]: 10 nM
IC50 [2]: 70 nM
IC50 [3]: 540 nM
IC50 [4]: 45 nM
Ratio IC50 [5]: 1

CC[C@@H](Cn1cc(C#N)c2ccccc21)NS(=O)(=O)c1c(N)cc(Cl)cc1Cl
IC50 [1]: 1 nM
half-life [6]: 3 min
ED50 [7]: 10 mg/kg
IC50 [8]: 5800 nM
ED50 [9]: 100 mg/kg
IC50 [2]: 330 nM
IC50 [3]: 1500 nM
IC50 [4]: 7 nM
Ratio IC50 [5]: 330

Cc1cc(C)c(S(=O)(=O)NC(Cc2c[nH]c3cccc(C#N)c23)C(F)(F)F)c(C)c1 (stereo not drawn)
IC50 [1]: > 10000 nM
IC50 [2]: 170 nM
IC50 [3]: > 10000 nM

Cc1cc(C)c(S(=O)(=O)NC(Cc2c[nH]c3ccccc23)C(F)(F)F)c(C)c1 (stereo not drawn)
IC50 [1]: 15 nM
IC50 [2]: 80 nM
IC50 [3]: 3600 nM
IC50 [4]: > 2000 nM

CC[C@@H](Cn1cc(C)c2ccccc21)NS(=O)(=O)c1c(N)cc(Cl)cc1Cl
IC50 [1]: 2 nM
half-life [6]: 2 min
IC50 [8]: 940 nM
IC50 [2]: 260 nM
IC50 [3]: 5000 nM
IC50 [4]: 10 nM

Cc1cc(C)c(S(=O)(=O)NC(Cc2c[nH]c3cccc(C)c23)C(F)(F)F)c(C)c1 (stereo not drawn)
IC50 [1]: 18 nM
IC50 [2]: 80 nM
IC50 [3]: > 2000 nM
IC50 [4]: > 2000 nM
Ratio IC50 [5]: 1

Cc1cc(C)c(S(=O)(=O)N[C@@H](C)Cc2c[nH]c3ccccc23)c(C)c1
IC50 [1]: 40 nM
IC50 [2]: 290 nM
IC50 [3]: 1400 nM
IC50 [4]: > 2000 nM
